Test results taken from US5817651A, “3-arylcarbonyl-1-(C-attached-N-heteryl)-1H-indoles” (Sanofi, priority 1997, dated 1998).
Read-outs that look alike come from different tables or passages of the source.

Key:
[1] = system: acetic acid-induced writhing; assay: acetic acid-induced writhing assay in the rat (RW); format: in vivo; conditions: for ED50: Rattus norvegicus, po, oral administration; for RW percent inhibition at dose 30: oral, dose level 30
Summary of the method: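 Rats received the test compounds by the oral route. The read-out was abdominal writhing.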

[2] = system: acetylcholine-induced abdominal constriction; assay: acetylcholine-induced abdominal constriction test (ACH); format: in vivo; design: key to ACH remark (Depr. = depressant): The abbreviations IA and Depr. represent, respectively, inactive and depressant; The abbreviations IA and Depr. represent, respectively, inactive and depressant; conditions: mice; for ACH remark (Depr. = depressant): remark beside the ED50
Summary of the method: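 Compounds were given as gum tragacanth suspensions or as aqueous solutions dissolved with dilute methanesulfonic or lactic acid.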

bradykinin = assay: anti-bradykinin test (BDK); format: in vivo; design: key to BDK result (po): The abbreviations IA and Depr. represent, respectively, inactive and depressant; The abbreviations IA and Depr. represent, respectively, inactive and depressant
Description: (§1) The test procedures used to determine the analgesic activities of the compounds have been described in detail in the prior art and are as follows: The acetylcholine-induced abdominal constriction test, which is a primary analgesic screening test designed to measure the ability of a test agent to suppress acetylcholine-induced abdominal constriction in mice, described by Collier et al., Brit. J. Pharmacol. Chemotherap. 32, 295 (1968); a modification of the anti-bradykinin test, which is also a primary analgesic screening procedure, described by Berkowitz et al., J. Pharmacol. Exptl. Therap. 177, 500-508 (1971), Blane et al., J. Pharm. Pharmacol. 19, 367-373 (1967), Botha et al., Eur. J. Pharmacol. 6, 312-321 (1969) and Deffenu et al., J. Pharm. Pharmacol. 18, 135 (1966); and the Randall-Selitto analgesic test described by Randall and Selitto, Arch. Int. Pharmacodyn., 111, 409-419 (1957).
(§2) Data in the developing adjuvant arthritis (AA) and plasma fibronectin (FN) assays are expressed as percent inhibition, i.e. inhibition of non-injected paw inflammation (NIP) and injected paw (RPV) and lowering of plasma fibronectin, the asterisks * and ** indicating statistical significance at the p<0.01 and p<0.05 levels, respectively. Compounds are considered active at p<0.05 level. Non-statistically significant results are recorded as "------ ". In the acetylcholine-induced abdominal constriction test, the test compounds were administered either as suspensions in gum tragacanth (GT) or as aqueous solutions prepared by addition of just sufficient dilute aqueous methanesulfonic acid (MS) or dilute aqueous lactic acid (LA) to dissolve the compound. The compounds are identified by the example number above where their preparations are described. All data in the anti-bradykinin, rat writhing and Randall-Selitto tests were obtained on oral administration.

paw pressure = assay: Randall-Selitto (RS) paw pressure test; format: in vivo; conditions: oral administration; read-out: RS minimum effective dose, MED
Description: as §1, §2

[3] = system: mouse vasa deferentia preparation; assay: mouse vas deferens test (MVD); format: cell-based; conditions: Mus musculus, inhibition of contractions, in vitro; active at 5.0 μM or less
Description: It has been shown previously that smoking marijuana reduces intraocular pressure in man [Helper and Frank, Marijuana Smoking and Intraocular Pressure., J. Am. Med. Assoc. 217, 1392 (1971)]. Topical application or systemic injection of delta-9 tetrahydrocannabinol, a principal active ingredient in marijuana, also reduces intraocular pressure [Purnell and Gregg, delta-9 Tetrahydrocannabinol, Euphoria and Intraocular Pressure in Man., Ann. Opth. 7, 921-923 (1975); Green and Pederson, Effect of delta-9 Tetrahydrocannabinol on Aqueous Dynamics and Ciliary Body Permeability in the Rabbit Eye., Exptl. Eye Research 15, 499-507 (1973); Colasanti, Craig and Allara, Intraocular Pressure, Ocular Toxicity and Neurotoxicity after Administration of Cannabinol or Cannibigerol, Exptl. Eye Research 39, 252-259 (1984)]. Similarly, synthetic cannabinoids also reduce intraocular pressure [Green, Symunds, Oliver and Elijah, Intraocular Pressure Following Systemic Administration of Cannabinoids., Curr. Eye Research 2, 247-253 (1982); Tiedeman, Shields, Weber, Crow, Coccetto, Harris and Howes, Opthalmology, 88, 270-277 (1981); Colasanti et al., supra]. Cannabinoid receptor binding sites can be defined as those to which radio-labelled 4-(1,1-dimethylheptyl)-2,3'-dihydroxy-6'alpha-(3-hydroxypropyl)-1', 2', 3', 4', 5', 6'-hexahydrobiphenyl (CP 55940) binds in a specific and saturable manner and the binding sites are heterogeneously distributed in the brain [Devane, Dysarz, Johnson, Melvin and Howlett, Determination and Characterization of a Cannabinoid Receptor in Rat Brain, Molecular Pharm. 34, 605-613 (1988)]. Natural and synthetic cannabinoids and certain of the compounds of the present invention, as more particularly described above, bind to CP 55940 binding sites. […] It is believed that agonist activity at the cannabinoid receptor mediates the anti-glaucoma actions of cannabinoids, and that agonist activity at this receptor correlates with ocular pressure lowering actions in man. Accordingly the cannabinoid receptor agonist activity of the compounds of the present invention indicate their usefulness in reducing ocular pressure.

[4] = system: adjuvant induced arthritis; assay: developing adjuvant arthritis (AA) assay; format: in vivo; design: key: Non-statistically significant results are recorded as "------ "; conditions: arthritic rats; printed * = p<0.01, ** = p<0.05
Summary of the method: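 Rats given complete Freund's adjuvant into the right hindpaw on day 1. Drug treatment begins while disease is developing but not yet irreversible. Swelling of non-injected (NIP) and injected (RPV) paws read 15–20 days later, expressed as percent inhibition; active at p<0.05.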

[5] = molecular target: T1, Cannabinoid receptor (CP 55940 binding sites) (Rattus norvegicus, UniProt P20272); assay: CP 55940 binding assay
T1 construct: from tissue
T1 sequence (P20272 whole entry): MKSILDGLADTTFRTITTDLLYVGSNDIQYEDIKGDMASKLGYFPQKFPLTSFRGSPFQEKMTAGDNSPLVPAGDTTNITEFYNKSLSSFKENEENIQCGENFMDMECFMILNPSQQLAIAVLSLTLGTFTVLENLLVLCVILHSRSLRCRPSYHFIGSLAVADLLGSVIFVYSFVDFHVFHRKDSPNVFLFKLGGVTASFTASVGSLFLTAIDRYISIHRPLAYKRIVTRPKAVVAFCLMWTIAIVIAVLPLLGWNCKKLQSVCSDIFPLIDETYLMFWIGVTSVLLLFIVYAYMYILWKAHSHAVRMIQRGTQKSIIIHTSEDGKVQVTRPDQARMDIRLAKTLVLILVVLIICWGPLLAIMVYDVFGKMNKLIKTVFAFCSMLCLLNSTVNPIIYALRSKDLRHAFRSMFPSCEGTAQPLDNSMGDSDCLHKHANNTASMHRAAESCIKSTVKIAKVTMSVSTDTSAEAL

[6] = Mus musculus, Table 9, Examples, no route marked in the cell, read-out: ACH ED50
[7] = Mus musculus, iv, Table 9, iv, read-out: ACH ED50 (iv)

| Compound | ED50 [1] [mg/kg] | ED50 [2, 6] [mg/kg] | ED50 [2, 7] [mg/kg] | minimal effective dose (paw pressure) [mg/kg] | IC50 [3] [nM] | NIP: percent inhibition of non-injected paw inflammation [4] | RPV: percent inhibition of injected paw [4] [%] | other results |
| --- | --- | --- | --- | --- | --- | --- | --- | --- |
| COc1ccc(C(=O)c2c(C)n(CC3CCCN3C)c3ccccc23)cc1 (racemic) [Example 2E] | 6 | 27 | 6 | 0.03 | 63 | -- | 24 | BDK result (po) (bradykinin; po): IA |
| COc1ccc(C(=O)c2c(C)n(C[C@@H]3CC[C@@H](C)N3C)c3ccccc23)cc1 (relative stereo) [Example 1Y] | 3 | 21 | 2 |  | 52 | 67% | 48 | ED50 ([2]; Mus musculus, sc, Table 9, sc, read-out: ACH ED50 (sc)): 10 mg/kg |
| Cc1c(C(=O)c2cccc3ccccc23)c2ccccc2n1CC1CCCN(C)C1 (stereo not shown) [Example 1M] |  |  | 7 | 0.1 | 91 |  |  | inhibition in vivo at 100 mg/kg ([2]; Mus musculus, Table 9, dose level 100, read-out: ACH percent inhibition at dose 100): 25% |
| COc1ccc(C(=O)c2c(C)n(C3CCN(C)C3)c3ccccc23)cc1 (stereo not shown) [Example 1X] | 12 | 20 |  |  | 150 | -- | 23 |  |
| COc1ccc(C(=O)c2c(C)n(CC3CCN(C)CC3)c3ccccc23)cc1 [Example 2AH] |  | 4 |  |  |  |  |  | RW percent inhibition at dose 30 [1]: 74%; ACH ED50 ([2]; Table 9, Examples, no route marked in the cell): 5 mg/kg; BDK percent inhibition at dose 3 (bradykinin; oral, dose level 3): 30% |
| COc1ccc(C(=O)c2c(C)n(CCC3CCCN3C)c3ccccc23)cc1 (stereo not shown) [Example 2B] | 25 | 32 | 8 | 10 |  |  |  | ACH ED50 ([2]; Table 9, Examples, no route marked in the cell, listed as 2B(HCl)): 23 mg/kg |
| COc1ccc(C(=O)c2c(C)n(CC3CCCN(C)C3)c3ccccc23)cc1 (stereo not shown) [Example 2D] | 2 | 8 |  |  |  | 99% | 78 | ED50 (bradykinin; oral administration): 2.4 mg/kg |
| COc1ccc(C(=O)c2cn(CCC3CCCCN3C)c3ccccc23)cc1 (stereo not shown) [Example 2F] |  | 45 | 4 | 3 |  |  |  |  |
| COc1ccc(C(=O)c2c(C)n(CC3CCCCN3C)c3ccccc23)cc1 (stereo not shown) [Example 2H] | 22 | 33 |  |  | 134 | 69% | 51 |  |
| COc1ccc(C(=O)c2cn(CC3CCCCN3C)c3ccccc23)cc1 (stereo not shown) [Example 2J] | 0.5 | 6 |  |  | 3 | 66% | 27 | ACH remark (Depr. = depressant) ([2]; Table 9): Depr. |
| CN1CCCCC1Cn1cc(C(=O)c2cccc3ccccc23)c2ccccc21 (stereo not shown) [Example 2P] |  | 9 | 0.03 |  | 0.22 |  |  | RW percent inhibition at dose 30 [1]: 98%; ACH ED50 (iv) ([2]; Table 9, iv): 0.05 mg/kg; ACH remark (Depr. = depressant) ([2]; Table 9): Depr.; IC50 [5]: 1.4 nM |
| Cc1c(C(=O)c2cccc3ccccc23)c2ccccc2n1CC1CCCCN1C (stereo not shown) [Example 2R] |  | 22 |  |  | 1 | 57% | 29 | RW percent inhibition at dose 30 [1]: 100% |
